Data on two compounds can be found in patent EP0428132A1, “Pradimicin derivatives” (Bristol-Myers Squibb Company, priority 1989, dated 1991).

The structures appear in SMILES notation. Where a name gives a salt, the structure may show the parent alone.

The test system of experiment [1] is T. mentagrophytes A22838. Nature of the experiment: In vitro antifungal activity, serial agar dilution method (Table 1a, footnote strain 3). It counts as cell-based. The settings on record: Trichophyton mentagrophytes, strain per footnote **3, YM agar (pH 7.0, Difco), 30°C for 2 days (yeast) or 4 days (filamentous fungi), read-out: MICs, T. mentagrophytes A22838. The method, then:
(§1) The inoculum size was adjusted to 10⁶ cells/ml, and a volume of approximately 0.003 ml of fungal suspension was applied to the surface of the antibiotic containing agar plates with a multiinoculator. After incubation, the lowest concentration of antibiotic causing virtually complete inhibition of fungal growth was determined as the minimum inhibitory concentration (MIC).

Experiment [2] concerns T. rubrum A24195. As to the kind of experiment: In vitro antifungal activity, serial agar dilution method (Table 1a, footnote strain 2). It counts as cell-based. The settings on record: Trichophyton rubrum, A24195, pH 7, read-out: MICs, T. rubrum A24195. The method, then:
as §1
A general note: In agar dilution the substance is mixed into plates at graded concentrations.

Experiment [3] relates to M. gypseum A22810. Nature of the experiment: In vitro antifungal activity, serial agar dilution method (Table 1a, footnote strain 1). It counts as cell-based, Microsporum gypseum. Conditions: Nannizzia gypsea, strain per footnote **1, YM agar (pH 7.0, Difco), 30°C for 2 days (yeast) or 4 days (filamentous fungi), read-out: MICs, M. gypseum A22810. The method, then: as §1
For experiment [4], the system named is Candida tropicalis A25809. Nature of the experiment: In vitro antifungal activity, serial agar dilution method (Table 1a). The class given is cell-based. Conditions: YM agar (pH 7.0, Difco), 30°C for 2 days (yeast) or 4 days (filamentous fungi), read-out: MICs, Candida tropicalis A25809. The protocol: as §1
The subject of experiment [5] is Candida tropicalis A25812. The experiment is described as above. The class given is cell-based. Conditions: A25812, YM agar (pH 7.0, Difco), 30°C for 2 days (yeast) or 4 days (filamentous fungi), read-out: MICs, Candida tropicalis A25812. The method, then: as §1
In experiment [6] the test system is Candida pseudotropicalis A25802. The experiment is described as above. It counts as cell-based. The settings on record: Kluyveromyces marxianus, YM agar (pH 7.0, Difco), 30°C for 2 days (yeast) or 4 days (filamentous fungi), read-out: MICs, Candida pseudotropicalis A25802. The protocol:
as §1

The subject of experiment [7] is Saccharomyces cerevisiae A25803. The description is as above. It counts as cell-based. The settings on record: YM agar (pH 7.0, Difco), 30°C for 2 days (yeast) or 4 days (filamentous fungi), read-out: MICs, Saccharomyces cerevisiae A25803. The protocol: as §1
The test system of experiment [8] is Candida albicans A9540. Described as above. The settings on record: A9540, YM agar (pH 7.0, Difco), 30°C for 2 days (yeast) or 4 days (filamentous fungi), read-out: MICs, Candida albicans A9540. The class given is cell-based. The method, then:
as §1

Experiment [9] concerns Cryptococcus neoformans A15053. The description is as above. The class given is cell-based. Conditions: A15053, YM agar (pH 7.0, Difco), 30°C for 2 days (yeast) or 4 days (filamentous fungi), read-out: MICs, Cryptococcus neoformans A15053. The method, then: as §1
Experiment [10] relates to Candida paratropicalis A25825. Described as above. It counts as cell-based. The settings on record: YM agar (pH 7.0, Difco); 30°C for 2 days (yeast) or 4 days (filamentous fungi); read-out: MICs, Candida paratropicalis A25825. The method, then: as §1
Experiment [11] deals with Candida albicans A25578. The experiment is described as above. Conditions: A25578, YM agar (pH 7.0, Difco), 30°C for 2 days (yeast) or 4 days (filamentous fungi), read-out: MICs, Candida albicans A25578. The class given is cell-based. The method, then:
as §1

In experiment [12] the test system is M. canis A22494. As to the kind of experiment: In vitro antifungal activity, serial agar dilution method (Table 1a, footnote strain 6). Conditions: Microsporum canis, A22494, pH 7, read-out: MICs, M. canis A22494. It counts as cell-based. The protocol:
as §1

On to `COc1cc(O)c2c(c1)C(=O)c1c(cc3c(c1O)-c1c(cc(C)c(C(=O)N[C@H](C)C(=O)O)c1O)[C@H](O[C@@H]1O[C@H](C)[C@H](N(C)C(=O)CN)[C@H](O)[C@H]1O)[C@H]3O)C2=O` [Ex. 14, N-(glycyl) pradimicin B formate salt], for which the MIC in experiment [1] stood at 1.6 mg/L; in experiment [2], 1.6 mg/L; in experiment [3], 3.2 mg/L; in experiment [4], 3.2 mg/L; in experiment [5] it was 3.2 mg/L; in [6] it was 1.6 mg/L. Also, the MIC turned out to be 1.6 mg/L in experiment [7]; 3.2 mg/L in experiment [8]; 1.6 mg/L in experiment [9]; 3.2 mg/L in experiment [10]; 3.2 mg/L in experiment [11].
Regarding `COc1cc(O)c2c(c1)C(=O)c1c(cc3c(c1O)-c1c(cc(C)c(C(=O)N[C@H](C)C(=O)O)c1O)[C@H](O[C@@H]1O[C@H](C)[C@H](N(C)C(=O)[C@@H](N)CCC(=O)O)[C@H](O)[C@H]1O)[C@H]3O)C2=O` [Ex. 20, N-(L-glutamyl) pradimicin B formate salt], the MIC in [1] worked out at 12.5 mg/L; in [2], 12.5 mg/L; in [3] it was 12.5 mg/L; in experiment [12], 12.5 mg/L; in experiment [5], 25 mg/L; in experiment [6], 6.3 mg/L. The MIC in [7] was 6.3 mg/L; in experiment [8], 25 mg/L; in experiment [9] it was 50 mg/L; in experiment [10], 25 mg/L; in experiment [11] it was 12.5 mg/L.
